Results published in patent US8574563B2 (Bristol-Myers Squibb Company, priority 2006, dated 2013).

What follows are compounds tested on HCV 1b-377-neo replicon cells (assay: HCV replicon assay, HCV 1b-377-neo replicon cells (1b FRET)). Settings: Hepatitis C virus, HCV 1b-377-neo replicon cells; HCV 1b genotype; read-out: EC50 range against HCV 1b (Table 2, Range).
Assay type: cell-based, Hepatitis C virus genotype 1b
Outline: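 Compounds were tested in genotype 1b subgenomic replicon cells carrying a neomycin marker, alongside a matched replicon line with an NS5A Y2065H substitution that confers resistance to a reference NS5A inhibitor.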
`COC(=O)N[C@@H](C(=O)N1CCC[C@H]1c1ncc(-c2ccc(-c3ccc(-c4cnc([C@@H]5CCCN5C(=O)Cc5ccncc5)[nH]4)cc3)cc2)[nH]1)c1ccccc1` [Example 48, methyl ((1R)-2-oxo-1-phenyl-2-((2S)-2-(5-(4′-(2-((2S)-1-(4-pyridinylacetyl)-2-pyrrolidinyl)-1H-imidazol-5-yl)-4-biphenylyl)-1H-imidazol-2-yl)-1-pyrrolidinyl)ethyl)carbamate] gave an EC50 of 0.001 to 0.999 nM. `CO[C@@H](C(=O)N1CCC[C@H]1c1ncc(-c2ccc(-c3ccc(-c4cnc([C@@H]5CCCN5C(=O)[C@@H](c5ccccc5Cl)N(C)C)[nH]4)cc3)cc2)[nH]1)c1ccccc1` [Example 107-37, (1R)-1-(2-chlorophenyl)-2-((2S)-2-(5-(4′-(2-((2S)-1-((2R)-2-methoxy-2-phenylacetyl)-2-pyrrolidinyl)-1H-imidazol-5-yl)-4-biphenylyl)-1H-imidazol-2-yl)-1-pyrrolidinyl)-N,N-dimethyl-2-oxoethanamine] gave an EC50 of 0.001 to 0.999 nM. In the case of `CCN(CC)[C@@H](C(=O)N1CCC[C@H]1c1ncc(-c2ccc(-c3ccc(-c4cnc([C@@H]5CCCN5C(=O)[C@@H]5CCN5C(=O)OC)[nH]4)cc3)cc2)[nH]1)c1ccccc1` [cj-50, methyl (2S)-2-(((2S)-2-(5-(4′-(2-((2S)-1-((2R)-2-(diethylamino)-2-phenylacetyl)-2-pyrrolidinyl)-1H-imidazol-5-yl)-4-biphenylyl)-1H-imidazol-2-yl)-1-pyrrolidinyl)carbonyl)-1-azetidinecarboxylate], the EC50 is reported as 0.001 to 0.999 nM. Compound `COC(=O)N[C@@H](C(=O)N1CCC[C@H]1c1ncc(-c2ccc(-c3ccc(-c4cnc([C@@H]5CCCN5C(=O)[C@H]5CCCO5)[nH]4)cn3)cc2)[nH]1)c1ccccc1` [Example 141, methyl ((1R)-2-oxo-1-phenyl-2-((2S)-2-(5-(4-(5-(2-((2S)-1((2R)-tetrahydro-2-furanylcarbonyl)-2-pyrrolidinyl)-1H-imidazol-5-yl)-2-pyridinyl)phenyl)-1H-imidazol-2-yl)-1-pyrrolidinyl)ethyl)carbamate] has an EC50 of 0.001 to 0.999 nM. `Cc1cc(-c2cnc([C@@H]3CCCN3C(=O)[C@@H](c3ccccc3)N(C)C)[nH]2)ccc1-c1ccc(-c2cnc([C@@H]3CCCN3C(=O)[C@@H](c3ccccc3)N(C)C)[nH]2)cc1` [Example 123, (1R,1′R)-2,2′-((2-methyl-4,4′-biphenyldiyl)bis(1H-imidazole-5,2-diyl(2S)-2,1-pyrrolidinediyl))bis(N,N-dimethyl-2-oxo-1-phenylethanamine)] showed an EC50 of 0.001 to 0.999 nM. `O=C([C@H]1CCCO1)N1CSC[C@H]1c1ncc(-c2ccc(-c3ccc(-c4cnc([C@@H]5CSCN5C(=O)[C@H]5CCCO5)[nH]4)cc3)cc2)[nH]1` [Example 150, (4R,4′R)-4,4′-(4,4′-biphenyldiylbis(1H imidazole-5,2-diyl))bis(3-((2R)-tetrahydro-2-furanylcarbonyl)-1,3-thiazolidine)] showed an EC50 of 1 to 99 nM. `CN(C)[C@@H](C(=O)N1CCC[C@H]1c1ncc(-c2ccc(-c3ccc(-c4cnc([C@@H]5CCCN5C(=O)c5snnc5-c5ccccc5)[nH]4)cc3)cc2)[nH]1)c1ccccc1` [Example 94-10, (1R)-N,N-dimethyl-2-oxo-1-phenyl-2-((2S)-2-(5-(4′-(2-((2S)-1-((4-phenyl-1,2,3-thiadiazol-5-yl)carbonyl)-2-pyrrolidinyl)-1H-imidazol-5-yl)-4-biphenylyl)-1H-imidazol-2-yl)-1-pyrrolidinyl)ethanamine] gave an EC50 of 0.001 to 0.999 nM. `COC(=O)N[C@@H](C(=O)N1CCC[C@H]1c1ncc(-c2ccc(-c3ccc(-c4cnc([C@@H]5CCCN5C(=O)[C@@H](OC(C)=O)c5ccccc5)[nH]4)cc3)cc2)[nH]1)c1ccccc1` [Example 84-83, (1S)-2-((2S)-2-(5-(4′-(2-((2S)-1-((2R)-2-((methoxycarbonyl)amino)-2-phenylacetyl)-2-pyrrolidinyl)-1H-imidazol-5-yl)-4-biphenylyl)-1H-imidazol-2-yl)-1-pyrrolidinyl)-2-oxo-1-phenylethyl acetate] showed an EC50 of 0.001 to 0.999 nM. For `COC(=O)N[C@@H](C(=O)N1CCC[C@H]1c1ncc(-c2ccc(-c3ccc(-c4cnc([C@@H]5CCCN5C(=O)C(c5ccsc5)N(C)C)[nH]4)cc3)cc2)[nH]1)c1ccccc1` (stereo partly drawn) [Example 84-47, methyl ((1R)-2-((2S)-2-(5-(4′-(2-((2S)-1-((dimethylamino)(3-thienyl)acetyl)-2-pyrrolidinyl)-1H-imidazol-5-yl)-4-biphenylyl)-1H-imidazol-2-yl)-1-pyrrolidinyl)-2-oxo-1-phenylethyl)carbamate], the EC50 was 0.001 to 0.999 nM. Compound `COC(=O)N[C@@H](C(=O)N(C)[C@@H](C)c1ncc(-c2ccc(-c3ccc(-c4cnc([C@H](C)N(C)C(=O)[C@H](NC(=O)OC)c5ccccc5)[nH]4)cc3)cc2)[nH]1)c1ccccc1` [Example 24-18-1, dimethyl (4,4′-biphenyldiylbis(1H-imidazole-5,2-diyl(1S)-1,1-ethanediyl(methylimino)((1R)-2-oxo-1-phenyl-2,1-ethanediyl)))biscarbamate] has an EC50 of 0.001 to 0.999 nM. In the case of `CCOC(=O)c1nc([C@@H]2CCCN2C(=O)[C@@H](c2ccccc2)N(C)C)[nH]c1-c1ccc(-c2ccc(-c3cnc([C@@H]4CCCN4C(=O)[C@@H](c4ccccc4)N(C)C)[nH]3)cc2)cc1` [Example J20, ethyl 2-((2S)-l-((2R)-2-(dimethylamino)-2-phenylacetyl)-2-pyrrolidinyl)-5-(4-(2-((2S)-1-((2R)-2-(dimethylamino)-2-phenylacetyl)-2-pyrrolidinyl)-1H-imidazol-5-yl)-4-biphenylyl)-1H-imidazole-4-carboxylate], the EC50 is reported as 0.001 to 0.999 nM. `COC(=O)N[C@@H](Cc1cn(C)cn1)C(=O)N1CCC[C@H]1c1ncc(-c2ccc(-c3ccc(-c4cnc([C@@H]5CCCN5C(=O)[C@@H](NC(=O)OC)[C@@H](C)OC)[nH]4)cc3)cc2)[nH]1` [cj-43, methyl ((1S)-2-((2S)-2-(5-(4′-(2-((2S)-1-((2S,3R)-3-methoxy-2-((methoxycarbonyl)amino)butanoyl)-2-pyrrolidinyl)-1H-imidazol-5-yl)-4-biphenylyl)-1H-imidazol-2-yl)-1-pyrrolidinyl)-1-((1-methyl-1H-imidazol-4-yl)methyl)-2-oxoethyl)carbamate] was tested, and the EC50 was 0.001 to 0.999 nM. In the case of `COC(=O)NC(C)(C)C(=O)N1[C@@H](C)CC[C@H]1c1nc(-c2ccc(-c3ccc(-c4c[nH]c([C@@H]5CC[C@H](C)N5C(=O)C(C)(C)NC(=O)OC)n4)cc3)cc2)c[nH]1` [Example M156, methyl (2-((2S,5S)-2-(4-(4′-(2-((2S,5S)-1-(2-((methoxycarbonyl)amino)-2-methylpropanoyl)-5-methyl-2-pyrrolidinyl)-1H-imidazol-4-yl)-4-biphenylyl)-1H-imidazol-2-yl)-5-methyl-1-pyrrolidinyl)-1,1-dimethyl-2-oxoethyl)carbamate], the EC50 is reported as 1 to 99 nM. Compound `O=CN[C@@H](C(=O)N1CCC[C@H]1c1ncc(-c2ccc(-c3ccc(-c4cnc([C@@H]5CCCN5C(=O)[C@H](NC=O)c5ccccc5)[nH]4)cc3)cc2)[nH]1)c1ccccc1` [Example 23, N,N′-(4,4′-biphenyldiylbis(1H-imidazole-5,2-diyl(2S)-2,1-pyrrolidinediyl((1R)-2-oxo-1-phenyl-2,1-ethanediyl)))diformamide] has an EC50 of 0.001 to 0.999 nM.
